The text below walks through data of article PMC4102417 (PLoS Neglected Tropical Diseases, 2014).

Experiment [1] concerns T. cruzi (Tulahuen strain). In words: microbe, parasite or virus in culture. Type of experiment: cell-based, Trypanosoma cruzi. Conditions: for activity at 10 µM: 120 h, read-out: T. cruzi % growth @ 10 uM (Amastigotes). How it is done: Compounds were tested against T. cruzi (Tulahuen strain) stably expressing the beta-galactosidase gene as previously described. […] Fibroblasts were plated at a density of 2×10^3 per well in 96 well tissue culture plates. After 24 hours of incubation, 1×10^4 trypomastigotes/well were added to the fibroblasts and incubated for 4 hours before addition of the test compounds from the Spectrum Collection (10 µM final concentration). Cultures were incubated at 37°C for 5 days, then developed with chlorophenol red β-D-galactopyranoside as previously described. The percent inhibition is reported with standard deviation of the mean. […] Z-prime values were calculated for each 96-well plate based on positive (4 wells) and negative controls (4 wells).

The next experiment concerns 3T3 fibroblast cells. In words: cells. Type of experiment: cell-based, murine. To be noted: for activity at 10 µM: Mus musculus, NIH3T3, 72 h, read-out: Mammalian (3T3) cell % growth at 10 uM.
Where [2] appears, read: Trypanosoma cruzi, TULAHUEN, Fibroblast, 10 uM, Table S1.
Setting [3] is: Trypanosoma cruzi, TULAHUEN, Fibroblast, 10 uM, Table S2.
Setting [4] is: Trypanosoma cruzi, TULAHUEN, Fibroblast, read-out: T. cruzi EC50.
Setting [5] is: Trypanosoma cruzi, TULAHUEN, Fibroblast, Table S2, amastigotes, read-out: T. cruzi EC50.

Structures can show the parent of a compound that is named as a salt. Where two headings read alike, the source gives them in different places.

Regarding `C=C1C(=O)OC2CC1C(OC(C)=O)CC(C)=CCCC(C)=CCCC2(C)O` (stereo not drawn) [CRASSIN ACETATE, 12-hydroxy-4,8,12-trimethyl-16-methylidene-15-oxo-14-oxabicyclo[11.3.1]heptadeca-4,8-dien-2-yl acetate], the activity at 10 µM in experiment [1] (setting [2]) was 0.2%; with 3T3 fibroblast cells (10 uM, Table S1), 2.5%.
Regarding `CC1(C)C(=O)C2OC2C2(C)C1CC(O)C1(C)C2CCC2(C)C(c3ccoc3)OC(=O)C3OC321` (stereo not drawn) [1,2alpha-EPOXYDEACETOXYDIHYDROGEDUNIN, 7-(furan-3-yl)-20-hydroxy-1,8,12,17,17-pentamethyl-3,6,14-trioxahexacyclo[9.9.0.0^{2,4}.0^{2,8}.0^{12,18}.0^{13,15}]icosane-5,16-dione], the activity at 10 µM in experiment [1] (setting [3]) turned out to be 7.8%; in the experiment with 3T3 fibroblast cells (10 uM, Table S2), 77.3%.
The corresponding values for `CCC(=C(c1ccccc1)c1ccc(OCCN(C)C)cc1)c1ccccc1` [TAMOXIFEN, {2-[4-(1,2-diphenylbut-1-en-1-yl)phenoxy]ethyl}dimethylamine] are 22.5% and 97%.
The corresponding values for `CCN(CC)CCOc1ccc2c(c1)C(=O)c1cc(OCCN(CC)CC)ccc1-2` [TILORONE, 2,7-bis[2-(diethylamino)ethoxy]-9H-fluoren-9-one] are 7.8% and 89%.
For `CC12C=CC(=O)C=C1CCC1C2CCC2(C)C(=O)CCC12` (stereo not drawn) [ANDROSTA-1,4-DIEN-3,17-DIONE, 2,15-dimethyltetracyclo[8.7.0.0^{2,7}.0^{11,15}]heptadeca-3,6-diene-5,14-dione], in that order: 25.1% and 72.1%.
In the case of `CC1COC2=C1C(=O)C(=O)c1c2ccc2c1CCCC2(C)C` (stereo not drawn) [CRYPTOTANSHINONE, 6,6,14-trimethyl-12-oxatetracyclo[8.7.0.0^{2,7}.0^{11,15}]heptadeca-1(10),2(7),8,11(15)-tetraene-16,17-dione], the activity at 10 µM was determined as 4.5% in experiment [1] (setting [3]) and 87% in the experiment with 3T3 fibroblast cells (10 uM, Table S2).
For `CC(Cc1cccc(C(F)(F)F)c1)NCCOC(=O)c1ccccc1` (stereo not drawn) [BENFLUOREX, 2-({1-[3-(trifluoromethyl)phenyl]propan-2-yl}amino)ethyl benzoate], in that order: 21.6% and 96.6%.
Take “1-methyl-9H-pyrido[3,4-b]indol-7-ol hydrochloride [HARMOL]”: in experiment [1] (10 uM, Table S2), the “T. cruzi % growth @ 10 uM (Amastigotes)” value is 4.4%. The “Mammalian (3T3) cell % growth at 10 uM” value in the experiment on 3T3 fibroblast cells (10 uM, Table S2) was found to be 71.4%.
As to `CCOc1ccc(Cc2nccc3cc(OCC)c(OCC)cc23)cc1OCC` [ETHAVERINE, 1-[(3,4-diethoxyphenyl)methyl]-6,7-diethoxyisoquinoline], the activity at 10 µM in experiment [1] (setting [3]) is 3.7%; in the experiment on 3T3 fibroblast cells (10 uM, Table S2) it was 95.1%.
For `CC(=O)OC[C@H]1O[C@@H](Oc2cc(OC(C)=O)c3c(=O)cc(-c4ccc(OC(C)=O)cc4)oc3c2)[C@H](OC(C)=O)[C@@H](OC(C)=O)[C@@H]1OC(C)=O` [COSMOSIIN HEXAACETATE], in that order: 12.9% and 100%.
For `C=CC(C1=CC(=O)C=CC1=O)c1ccccc1` (stereo not drawn) [DALBERGIONE, 2-(1-phenylprop-2-en-1-yl)cyclohexa-2,5-diene-1,4-dione], in that order: 12.4% and 97.5%.
On to `CN1CCCC(n2nc(Cc3ccc(Cl)cc3)c3ccccc3c2=O)CC1` (stereo not drawn) [AZELASTINE HYDROCHLORIDE, 4-[(4-chlorophenyl)methyl]-2-(1-methylazepan-4-yl)-1,2-dihydrophthalazin-1-one hydrochloride], for which the activity at 10 µM in experiment [1] (setting [3]) turned out to be 1.5%; in the experiment with 3T3 fibroblast cells (10 uM, Table S2) it was 95.1%. The EC50 – broadly, the concentration that produces a half-maximal response – in experiment [1] (setting [4]) was found to be 2200 nM.
Take `NC(=O)c1cc([N+](=O)[O-])cc([N+](=O)[O-])c1` [NITROMIDE, 3,5-dinitrobenzamide]: the “T. cruzi % growth @ 10 uM (Amastigotes)” value in experiment [1] (10 uM, Table S2) came to 1.9%. The EC50 in experiment [1] (Table S2, amastigotes, read-out: T. cruzi EC50) worked out at 4800 nM. Further, in the experiment with 3T3 fibroblast cells (10 uM, Table S2), the “Mammalian (3T3) cell % growth at 10 uM” value was determined as 97.2%.
As to `CNCCC=C1c2ccccc2CCc2ccccc21` [NORTRIPTYLINE, methyl(3-{tricyclo[9.4.0.0^{3,8}]pentadeca-1(15),3,5,7,11,13-hexaen-2-ylidene}propyl)amine], the activity at 10 µM was determined as 9.7% in experiment [1] (Trypanosoma cruzi, TULAHUEN, Fibroblast) and 100% in the experiment on 3T3 fibroblast cells. Moreover, the EC50 in experiment [1] (Trypanosoma cruzi, TULAHUEN, Fibroblast, read-out: T. cruzi EC50 (nM)) was 5180 nM.
Turning to `CC(=O)N1CCN(c2ccc(OC[C@H]3CO[C@](Cn4ccnc4)(c4ccc(Cl)cc4Cl)O3)cc2)CC1` [KETOCONAZOLE, 1-[4-(4-{[(2R,4S)-2-(2,4-dichlorophenyl)-2-(1H-imidazol-1-ylmethyl)-1,3-dioxolan-4-yl]methoxy}phenyl)piperazin-1-yl]ethan-1-one], the activity at 10 µM in experiment [1] (setting [3]) turned out to be 2.1%; with 3T3 fibroblast cells (10 uM, Table S2), 100%. Also, the half-maximal effective concentration (EC50) in experiment [1] (setting [5]) turned out to be 0.3 nM; in experiment [1] (setting [4]) it was 1 nM.
As to `C#C[C@]1(O)CC[C@H]2[C@@H]3CCC4=Cc5oncc5C[C@]4(C)[C@H]3CC[C@@]21C` [DANAZOL, (1S,2R,13R,14S,17R,18S)-17-ethynyl-2,18-dimethyl-7-oxa-6-azapentacyclo[11.7.0.0^{2,10}.0^{4,8}.0^{14,18}]icosa-4(8),5,9-trien-17-ol], the activity at 10 µM in experiment [1] (setting [3]) was 0.9%; in the experiment with 3T3 fibroblast cells (10 uM, Table S2), 90.2%. For the same compound, the EC50 in experiment [1] (setting [5]) was determined as 6970 nM.
With `CCCCC1C(=O)N(c2ccccc2)N(c2ccc(O)cc2)C1=O` (stereo not drawn) [OXYPHENBUTAZONE, 4-butyl-1-(4-hydroxyphenyl)-2-phenylpyrazolidine-3,5-dione], the activity at 10 µM worked out at 3.7% in experiment [1] (setting [3]) and 72.8% in the experiment on 3T3 fibroblast cells (10 uM, Table S2). Besides, the EC50 in experiment [1] (setting [4]) is 12000 nM.
As for `Cc1nc2ccccn2c(=O)c1CCN1CCC(C(=O)c2ccc(F)cc2)CC1` [PIRENPERONE, 3-(2-{4-[(4-fluorophenyl)carbonyl]piperidin-1-yl}ethyl)-2-methyl-4H-pyrido[1,2-a]pyrimidin-4-one], the activity at 10 µM in experiment [1] (setting [3]) came out at 23.1%; in the experiment with 3T3 fibroblast cells (10 uM, Table S2), 91.6%.
The corresponding values for `CN1CCC(=C2c3ccccc3CCc3sccc32)CC1` [PIZOTYLINE MALATE, 1-methyl-4-{6-thiatricyclo[8.4.0.0^{3,7}]tetradeca-1(14),3(7),4,10,12-pentaen-2-ylidene}piperidine; 2-hydroxybutanedioic acid] are 21.4% and 86.5%.
For `COC1CC(OC2C(C)C(=O)OC(C)C(C)C(O)C(C)C(=O)C3(CO3)CC(C)C(OC3OC(C)CC(N(C)C)C3O)C2C)OC(C)C1O` (stereo not drawn) [OLEANDOMYCIN PHOSPHATE, 14-{[4-(dimethylamino)-3-hydroxy-6-methyloxan-2-yl]oxy}-6-hydroxy-12-[(5-hydroxy-4-methoxy-6-methyloxan-2-yl)oxy]-5,7,8,11,13,15-hexamethyl-1,9-dioxaspiro[2.13]hexadecane-4,10-dione; phosphoric acid], in that order: 15.7% and 100%.
On to `CCCCCCCCCCCCCC(=O)O[C@@H]1[C@@H](C)[C@@]2(O)[C@@H](C=C(CO)C[C@]3(O)C(=O)C(C)=C[C@@H]23)[C@@H]2C(C)(C)[C@]12OC(C)=O` [PHORBOL MYRISTATE ACETATE, (1S,2S,6R,10S,11R,13S,14R,15R)-13-(acetyloxy)-1,6-dihydroxy-8-(hydroxymethyl)-4,12,12,15-tetramethyl-5-oxotetracyclo[8.5.0.0^{2,6}.0^{11,13}]pentadeca-3,8-dien-14-yl tetradecanoate], for which the activity at 10 µM in experiment [1] (setting [3]) came out at 5.6%; in the experiment on 3T3 fibroblast cells (10 uM, Table S2), 89.2%.
The corresponding values for `O=c1cc(-c2ccccc2)oc2c(O)c(O)ccc12` [7,8-DIHYDROXYFLAVONE, 7,8-dihydroxy-2-phenyl-4H-chromen-4-one] are 1.3% and 72.6%.
The corresponding values for `COc1ccc2cc3[n+](cc2c1OC)CCc1cc2c(cc1-3)OCO2` [BERBERINE, 16,17-dimethoxy-5,7-dioxa-13$l^5-azapentacyclo[11.8.0.0^{2,10}.0^{4,8}.0^{15,20}]henicosa-1(21),2,4(8),9,13,15,17,19-octaen-13-ylium] are 4.1% and 75.8%.
For `CCN(CC)CCOc1ccc(C(=C(Cl)c2ccccc2)c2ccccc2)cc1` [CLOMIPHENE, {2-[4-(2-chloro-1,2-diphenylethenyl)phenoxy]ethyl}diethylamine], in that order: 12.9% and 100%.
Consider `CCN(CCO)CCCC(C)Nc1ccnc2cc(Cl)ccc12` (stereo not drawn) [HYDROXYCHLOROQUINE SULFATE, 2-({4-[(7-chloroquinolin-4-yl)amino]pentyl}(ethyl)amino)ethan-1-ol; sulfuric acid], for which the activity at 10 µM in experiment [1] (setting [2]) was 0.1%; in the experiment on 3T3 fibroblast cells (10 uM, Table S1), 100%. Moreover, in experiment [1] (setting [5]), the EC50 was determined as 4640 nM.
For `CCC(=O)O[C@H]1CC[C@H]2[C@@H]3CCc4cc(O)ccc4[C@H]3CC[C@]12C` [ESTRADIOL PROPIONATE, (1S,10R,11S,14S,15S)-5-hydroxy-15-methyltetracyclo[8.7.0.0^{2,7}.0^{11,15}]heptadeca-2,4,6-trien-14-yl propanoate], the activity at 10 µM in experiment [1] (setting [3]) came out at 20.3%; in the experiment with 3T3 fibroblast cells (10 uM, Table S2), 100%.
